Reference: ChEMBL document CHEMBL1122731, “Potential synthetic codeine substitutes: (-)-3-O-aryl-N-methylmorphinans” (J Med Chem, 1984)

Assays:
Type in all cases: functional
Mus musculus [1] = test: Compound was tested for analgesic activity by writhing test after subcutaneous administration in mice; conditions: sc
Mus musculus [2] = test: Compound was tested for analgesic activity by tail-flick test after subcutaneous administration in mice; conditions: sc
Mus musculus [3] = test: Compound was tested for analgesic activity by writhing test after peroral administration in mice; conditions: po
Mus musculus [4] = test: Compound was tested for analgesic activity by tail-flick test after peroral administration in mice; conditions: po

SMILES	ED50 (Mus musculus [1]) [mg/kg]	ED50 (Mus musculus [2]) [mg/kg]	ED50 (Mus musculus [3]) [mg/kg]	ED50 (Mus musculus [4]) [mg/kg]
CN1CC[C@]23CCCC[C@H]2[C@H]1Cc1ccc(Oc2ccc(O)cc2)cc13.Cl	1.3	6.69	–	–
Cc1ccc(Oc2ccc3c(c2)[C@@]24CCCC[C@H]2[C@@H](C3)N(C)CC4)cc1.Cl	23	–	–	–
CN1CC[C@]23CCCC[C@H]2[C@H]1Cc1ccc(Oc2ccccc2F)cc13.O=C(O)C(=O)O	3	23.3	–	–
CN1CC[C@]23CCCC[C@H]2[C@H]1Cc1ccc(Oc2ccc(F)cc2)cc13	1	37.3	–	–
COc1ccc(Oc2ccc3c(c2)[C@@]24CCCC[C@H]2[C@@H](C3)N(C)CC4)cc1	2.1	25	–	–
CN1CC[C@]23CCCC[C@H]2[C@H]1Cc1ccc(O)cc13.O=C(O)C(O)C(O)C(=O)O	0.11	1.21	1.4	8.5
CN1CC[C@]23CCCC[C@H]2[C@H]1Cc1ccc(Oc2ccccc2)cc13.O=C(O)C(O)C(O)C(=O)O	1.25	19.7	2.3	51.7
CCO.CN1CC[C@]23CCCC[C@H]2[C@H]1Cc1ccc(Oc2ccccc2O)cc13.O=C(O)C(O)C(O)C(=O)O	1.8	11.4	–	–
CCO.CN1CC[C@]23CCCC[C@H]2[C@H]1Cc1ccc(Oc2cccc(O)c2)cc13.O=C(O)C(O)C(O)C(=O)O	9	80.1	–	–
CN1CC[C@]23CCCC[C@H]2[C@H]1Cc1ccc(Oc2ccccn2)cc13.O=C(O)C(O)C(O)C(=O)O	1.1	10.1	–	–
CN1CC[C@]23CCCC[C@H]2[C@H]1Cc1ccc(Oc2cccc(F)c2)cc13.O.O=C(O)C(O)C(O)C(=O)O	1.85	71	–	–
COc1ccccc1Oc1ccc2c(c1)[C@@]13CCCC[C@H]1[C@@H](C2)N(C)CC3	0.49	24.4	–	–
CN1CC[C@]23c4c5ccc(O)c4O[C@H]2[C@@H](O)C=C[C@H]3[C@H]1C5.CN1CC[C@]23c4c5ccc(O)c4O[C@H]2[C@@H](O)C=C[C@H]3[C@H]1C5.O=S(=O)(O)O	0.46	–	–	31.2
COc1cccc(Oc2ccc3c(c2)[C@@]24CCCC[C@H]2[C@@H](C3)N(C)CC4)c1	2.5	39.7	–	–
COc1ccc2c3c1O[C@H]1[C@@H](O)C=C[C@H]4[C@@H](C2)N(C)CC[C@@]341.COc1ccc2c3c1O[C@H]1[C@@H](O)C=C[C@H]4[C@@H](C2)N(C)CC[C@@]341.O.O=P(O)(O)O.O=P(O)(O)O [CODEINE PHOSPHATE]	2.3	–	24	119
Br.COc1ccc2c(c1)[C@@]13CCCCC1[C@@H](C2)N(C)CC3 (some centres not stated) [LEVOMETHORPHAN HYDROBROMIDE]	0.64	–	1.5	5.27
